pIC50: −log10 of the molar value. Bounds are passed on as bounds.

The pIC50 is the IC50 on a negative log10 scale, so that one unit is a factor of ten. A higher pIC50 goes with a low IC50. A word on the half-life: it is the time needed for the level to fall by half in the phase considered. Read a high half-life as slow decline.

One series concerns LoVo. Description: Tested for the cytotoxic effect in LoVo cells, activity. Type of series: functional, cell-based. The following applies: Homo sapiens.
A short description of series [1]: Half life period was determined. Type of series: ADME. As to conditions: rat.

On to `CN(C(=O)Oc1ccc(N(CCCl)CCCl)cc1)c1cc([N+](=O)[O-])ccc1O[C@@H]1O[C@@H](C(=O)O)[C@@H](O)[C@H](O)[C@@H]1O`, for which the pIC50 with LoVo was under 3.08. Besides, in series [1], the half-life was 44 min.

The values are drawn from ChEMBL document CHEMBL1159179, “Glucuronide prodrugs of hydroxy compounds for antibody directed enzyme prodrug therapy (ADEPT) : A phenol nitrogen mustard carbamate” (Bioorg Med Chem Lett, 1997).
